Data on 16 compounds can be found in patent publication US8263605B2, “Modulators of muscarinic receptors” (Vertex Pharmaceutical Incorporated, priority 2006, dated 2012).

In one assay the target is T1, M4 muscarinic receptor (Homo sapiens, UniProt P08173).
T1 construct: expressed in transfected cells; host or cells: CHO (M4-CHO)
T1 sequence (P08173 1-479): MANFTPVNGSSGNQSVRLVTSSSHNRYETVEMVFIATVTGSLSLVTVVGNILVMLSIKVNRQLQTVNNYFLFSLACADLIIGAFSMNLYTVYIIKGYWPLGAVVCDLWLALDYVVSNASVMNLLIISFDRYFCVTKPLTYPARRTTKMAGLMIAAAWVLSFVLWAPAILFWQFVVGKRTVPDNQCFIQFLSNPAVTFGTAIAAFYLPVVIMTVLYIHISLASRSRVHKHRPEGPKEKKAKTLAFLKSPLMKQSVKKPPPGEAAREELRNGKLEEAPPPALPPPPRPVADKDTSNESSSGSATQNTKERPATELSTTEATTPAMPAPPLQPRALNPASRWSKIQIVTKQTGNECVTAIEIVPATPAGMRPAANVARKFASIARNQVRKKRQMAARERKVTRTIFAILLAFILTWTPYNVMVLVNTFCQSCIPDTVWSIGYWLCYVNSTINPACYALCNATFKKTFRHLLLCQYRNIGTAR
The assay is described as follows: Functional mobilization of intracellular calcium (FLIPR), M4-CHO cells. Format: cell-based. The following applies: for Emax: 100% efficacy is the maximum response obtained with the Carbachol control; for M4 Activity: CHO cells expressing M4, calcium mobilization. As to the method: (§1) Functional Mobilization of Intracellular Calcium to Determine Muscarinic Receptor Activity:
(§2) CHO cells expressing muscarinic receptors (M1 to M5) are grown as monolayers in tissue culture flasks at 37° C. in a humidified atmosphere containing 5% CO2 and passaged every 3-5 days. The growth media is Dulbecco's modified eagles medium (DMEM, Gibco Cat#12430-054), containing 25 mM Hepes and supplemented with Fetal Bovine Serum (Hyclone, cat# SH30071.03), 0.1 mM of MEM non-essential amino acids (GIBCO, Cat#11140-050), 1 mM MEM Sodium Pyruvate (GIBCO Cat#11360-070) and 100 units/ml of Penicillin G and 100 μg/ml of Streptomycin (GIBCO Cat#15140-122). The recombinant muscarinic receptor cell lines are grown under antibiotic pressure with media containing 25 μg/ml zeocin and 500 μg/ml G418 (M1-CHO), 4 μg/ml puromycin, 50 μg/ml zeocin and 2.5 μg/ml blasticidin (M2 and M4-CHO) or 50 μg/ml zeocin and 4 μg/ml puromycin (M3 and M5-CHO).
(§3) Cells are harvested at 80-90% confluence using Versene (GIBCO Cat#15040-066), collected by centrifugation and seeded 18-24 hours prior to running the calcium assay at a density of 5,000-10,000 cells/well in […], clear-bottomed 384-well plates (BD Biocoat, poly-D-lysine, Cat#356663). The day of the experiment, the cells are washed with a plate washer (Bioteck Instrunents, ELX 405) using bath 1 buffer (140-mM NaCl, 4.5-mM KCl, 2-mM CaCl2, 1-mM MgCl2, 10-mM Hepes-Na, 10-mM Glucose, pH 7.4, with NaOH) containing 1 mM Probenecid. Next, the calcium dye Fluo-3 (25 μl/well of Fluo-3 AM at 4 μM, Molecular Probes F-1241, in Bath 1 buffer containing 1 mM Probenecid) is added to the 25 μl of Bath 1 remaining in each well after the plate wash and the dye is loaded at 37° C. in the tissue culture incubator for 60-90 min. The fluorescent dye is removed using the plate washer with Bath 1 containing 1 mM Probenecid, leaving 25 μl/well of this solution after the wash. Alternatively, cells can be loaded with the calcium indicator from Molecular Devices (Calcium 3 Assay Reagents, Cat # R7181) adding 5 μl of a 5× solution dye in Bath 1 containing 1 mM Probenecid (10 ml per dye flask cat# R7182 to generate a solution 20×) to 20 μl of the same buffer. After loading for 60 min, the experiment can be run without having to remove the dye.
(§4) Compounds are prepared at a 2× fold concentration in a 96-well plate (round bottom, Costar Corning cat#3656), by reconstituting the pre-spotted compounds in bath 1 containing 1 mM probenecid. The final concentration DMSO is 0.5%, and the amount of DMSO is normalized across the assay plate. To determine an agonist action of the compounds on muscarinic receptors, the reconstituted compounds are added (25 μl compound/well) to the cell assay plate (containing 25 μl/well) using the multi-channel robotic system of the FLIPR 3 Instrument (Molecular Devices, Sunnyvale, Calif.). To determine a functional inhibitory action of the compounds on muscarinic receptors, the reconstituted compounds are added (25 μl compound/well) to the assay plate and pre-incubated for 15 min prior to adding 25 μl of Carbachol at 3× the EC80 for each muscarinic subtype. Alternatively, the compounds can be co-applied simultaneously with the agonist. In both assay modes, the fluorescence is recorded for 60 sec (excitation wavelength is […] and emission wavelength 540 nm) using the FLIPR 3 instrument.
(§5) The potency, efficacy and selectivity of the muscarinic compounds were evaluated by screening the compound activity across the whole family (M1 to M5 cells). Compounds were also screened for activity on other proteins such as other GPCRs and ion channels to determine selectivity on M4 receptors.
(§6) Examples of activities and efficacies of the muscarinic compounds of formulae (I, Ia, Ib, Ic, Id, and Ie) on modulating M1 and M4 receptors are shown below in Table 4. […]
Background: A change in cytosolic calcium serves as a functional read-out for many receptors and channels.

For another assay, the target named is T2, M1 muscarinic receptor (Homo sapiens, UniProt P11229).
T2 construct: expressed in transfected cells; host or cells: CHO (M1-CHO)
T2 sequence (P11229 1-460): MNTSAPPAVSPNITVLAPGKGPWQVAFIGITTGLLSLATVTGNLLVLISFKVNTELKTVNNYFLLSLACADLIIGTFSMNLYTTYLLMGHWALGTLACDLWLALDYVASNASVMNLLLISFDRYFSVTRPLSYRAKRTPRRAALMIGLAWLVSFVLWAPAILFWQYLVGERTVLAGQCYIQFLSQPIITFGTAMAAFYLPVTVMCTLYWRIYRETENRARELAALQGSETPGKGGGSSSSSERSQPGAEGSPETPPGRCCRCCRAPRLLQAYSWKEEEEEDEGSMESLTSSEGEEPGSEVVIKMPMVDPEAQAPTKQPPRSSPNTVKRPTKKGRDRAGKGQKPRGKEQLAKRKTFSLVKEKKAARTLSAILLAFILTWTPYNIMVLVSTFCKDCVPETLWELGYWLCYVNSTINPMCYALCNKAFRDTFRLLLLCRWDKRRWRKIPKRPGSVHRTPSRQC
Kind of assay: Functional mobilization of intracellular calcium (FLIPR), M1-CHO cells. Format: cell-based. The following applies: for Emax: 100% efficacy is the maximum response obtained with the Carbachol control; for M1 Activity: CHO cells expressing M1, calcium mobilization. As for the experimental part:
as §1, §2, §3, §4, §5, §6

Structures are written as SMILES. Where only a bound is given, the exact number is not on record here.

One may read the Emax as the size of the effect at its maximum, as opposed to the concentration needed. Regarding `CN(C)C(=O)N1CCC2(CCN(C3CCN(c4cnccn4)CC3)CC2)c2ccccc21` [compound 8], at M4 muscarinic receptor, the Emax is 25 to 100% and the “M4 Activity” value was “+++ (activity was measured to be less than 2.0 μM)”. In addition, on M1 muscarinic receptor, the Emax fell in the range of 25 to 100% and the “M1 Activity” value was “+++ (activity was measured to be less than 2.0 μM)”.

With `CCOC(=O)N1C2CCC1CC(N1CCC3(CCN(C(=O)N(C)C)c4ccccc43)CC1)C2` (stereo not shown) [compound 27], on M4 muscarinic receptor, the Emax lay in the range of 25 to 100% and the “M4 Activity” value is given as “+++ (activity was measured to be less than 2.0 μM)”. Moreover, on M1 muscarinic receptor, the Emax lay in the range of 25 to 100% and the “M1 Activity” value is recorded as “+++ (activity was measured to be less than 2.0 μM)”.

For the compound `CN(C)C(=O)N[C@H]1CC2(CCN(C3CC4CC[C@@H]3C4)CC2)c2ccccc21` (stereo in doubt) [Compound No. 119, 3-((S)-1′-((1R,2S,4S)-bicyclo[2.2.1]heptan-2-yl)-2,3-dihydrospiro[indene-1,4′-piperidine]-3-yl)-1,1-dimethylurea], on M4 muscarinic receptor, the Emax lay within 25 to 100% and the “M4 Activity” value is given as “+++ (activity was measured to be less than 2.0 μM)”. For the same compound, on M1 muscarinic receptor, the Emax was below 25% and the “M1 Activity” value is reported as “+ (activity was measured to be greater than 10.0 μM)”.

In the case of `COC(=O)N1CCC(N2CCC3(CC2)CN(C(=O)N(C)C)c2ccccc23)CC1` [compound 38], on M4 muscarinic receptor, the Emax was in the range of 25 to 100% and the “M4 Activity” value was “+++ (activity was measured to be less than 2.0 μM)”. Further, on M1 muscarinic receptor, the Emax fell in the range of 25 to 100% and the “M1 Activity” value is “++ (activity was measured to be from 2.0 μM to 10.0 μM)”.

On to `CCc1nsc(N2CCC(N3CCC4(CC3)CN(C(=O)N(C)C)c3ccccc34)CC2)n1` [compound 76], for which, at M4 muscarinic receptor, the Emax was above 100% and the “M4 Activity” value was “+++ (activity was measured to be less than 2.0 μM)”. Further, on M1 muscarinic receptor, the Emax is above 100% and the “M1 Activity” value is on record as “+++ (activity was measured to be less than 2.0 μM)”.

Turning to `Cc1nsc(C2CCC(N3CCC4(CC3)CN(C(=O)N(C)C)c3ccccc34)CC2)n1` (stereo not shown) [compound 74], on M4 muscarinic receptor, the Emax lay in the range of 25 to 100% and the “M4 Activity” value was “+++ (activity was measured to be less than 2.0 μM)”. Besides, at M1 muscarinic receptor, the Emax fell in the range of 25 to 100% and the “M1 Activity” value is recorded as “+++ (activity was measured to be less than 2.0 μM)”.

As for `CN(C)C(=O)N1CC2(CCN(C[C@H]3CCN(C(=O)OCC(F)F)C3)CC2)c2ccccc21` [compound 63], on M4 muscarinic receptor, the Emax is 25 to 100% and the “M4 Activity” value was “+++ (activity was measured to be less than 2.0 μM)”. Further, on M1 muscarinic receptor, the Emax was in the range of 25 to 100% and the “M1 Activity” value is given as “+++ (activity was measured to be less than 2.0 μM)”.

Regarding `COCCOC(=O)N1C2CCC1CC(N1CCC3(CC1)CN(C(=O)N(C)C)c1ccccc13)C2` (stereo not shown) [compound 50], at M4 muscarinic receptor, the Emax lay in the range of 25 to 100% and the “M4 Activity” value is given as “+++ (activity was measured to be less than 2.0 μM)”. Besides, at M1 muscarinic receptor, the Emax was 25 to 100% and the “M1 Activity” value is listed as “+++ (activity was measured to be less than 2.0 μM)”.

As for `Cc1nsc(N2CCC(C)(N3CCC4(CC3)CN(C(=O)N(C)C)c3ccccc34)CC2)n1` [compound 115], at M4 muscarinic receptor, the Emax was below 25% and the “M4 Activity” value is “+++ (activity was measured to be less than 2.0 μM)”. For the same compound, at M1 muscarinic receptor, the maximum response (Emax) is below 25% and the “M1 Activity” value is “+ (activity was measured to be greater than 10.0 μM)”.

On to `CC(=O)N1CCC2(CCN(C3CCN(c4nccs4)CC3)CC2)c2ccccc21` [compound 24], for which, on M4 muscarinic receptor, the Emax is below 25% and the “M4 Activity” value is given as “++ (activity was measured to be from 2.0 μM to 10.0 μM)”. In addition, at M1 muscarinic receptor, the Emax is 25 to 100% and the “M1 Activity” value was “++ (activity was measured to be from 2.0 μM to 10.0 μM)”.

In the case of `CC(C)OC(=O)N1CC[C@H](CN2CCC3(CC2)CN(C(=O)N(C)C)c2ccccc23)C1` [compound 62], at M4 muscarinic receptor, the Emax was in the range of 25 to 100% and the “M4 Activity” value was “+++ (activity was measured to be less than 2.0 μM)”. In addition, on M1 muscarinic receptor, the Emax is 25 to 100% and the “M1 Activity” value is given as “++ (activity was measured to be from 2.0 μM to 10.0 μM)”.

On to `CC(=O)N1CCC2(CCN(C3CCN(c4cnc5ccccc5n4)CC3)CC2)c2ccccc21` [compound 18], for which, at M4 muscarinic receptor, the Emax is 25 to 100% and the “M4 Activity” value was “+++ (activity was measured to be less than 2.0 μM)”. On M1 muscarinic receptor, the Emax lay within 25 to 100% and the “M1 Activity” value was “++ (activity was measured to be from 2.0 μM to 10.0 μM)”.

As for `C#CCOC(=O)N1CCC(N2CCC3(CC2)CN(C(=O)N(C)C)c2ccccc23)CC1` [compound 92], at M4 muscarinic receptor, the Emax was above 100% and the “M4 Activity” value was “+++ (activity was measured to be less than 2.0 μM)”. Also, on M1 muscarinic receptor, the Emax was above 100% and the “M1 Activity” value was “+++ (activity was measured to be less than 2.0 μM)”.

`C#CCOC(=O)N1CC[C@@H](CN2CCC3(CC2)CN(C(=O)N(C)C)c2ccccc23)C1` [compound 97]: on M4 muscarinic receptor, the Emax lay within 25 to 100% and the “M4 Activity” value is “+++ (activity was measured to be less than 2.0 μM)”. In addition, on M1 muscarinic receptor, the Emax lay in the range of 25 to 100% and the “M1 Activity” value was “+++ (activity was measured to be less than 2.0 μM)”.

For `CC#CCOC(=O)N1C2CCC1CC(N1CCC3(CCN(C(=O)N(C)C)c4ccccc43)CC1)C2` (stereo not shown) [compound 29], at M4 muscarinic receptor, the Emax lay in the range of 25 to 100% and the “M4 Activity” value is recorded as “+++ (activity was measured to be less than 2.0 μM)”. Further, on M1 muscarinic receptor, the Emax was above 100% and the “M1 Activity” value is given as “+++ (activity was measured to be less than 2.0 μM)”.

Consider `CCC#CCOC(=O)N1CCCC(N2CCC3(CC2)CN(C(=O)N(C)C)c2ccccc23)CC1` (stereo not shown) [compound 106], for which, on M4 muscarinic receptor, the maximum response (Emax) lay in the range of 25 to 100% and the “M4 Activity” value was “+++ (activity was measured to be less than 2.0 μM)”. Further, on M1 muscarinic receptor, the Emax lay in the range of 25 to 100% and the “M1 Activity” value is “+++ (activity was measured to be less than 2.0 μM)”.
